Results taken from patent US20110105457A1, “HETEROCYCLIC COMPOUND HAVING INHIBITORY ACTIVITY ON PI3K” (SHIONOGI & CO., LTD., priority 2008, published 2011).

Target: PI-3 kinase γ (Homo sapiens, UniProt P48736)
Experiment: PI3Kγ inhibitory activity, PI3-kinase HTRF assay (Millipore)
Format: biochemical
Conditions: 0.5 h; compound 50 μM; read-out: Inhibition ratio % (50 μM)
Method: (Method) The PI3Kγ inhibitory activity of a compound was evaluated using PI3-kinase HTRF™ assay (Millipore) according to the following procedure.
To each well of a testing plate was added 5 μL of a compound solution comprising 10% DMSO (200 μM as the concentration of the compound), 5 μL of 40 μM phosphatidylinositol (4,5)-bisphosphate/20 mM MgCl2/10 mM DTT, and 5 μL of 80 μg/mL PI-3 kinase γ/10 mM MgCl2/5 mM DTT, and then stood for 10 minutes.
Then, 5 μL of 40 μM ATP/10 mM MgCl2/5 mM DTT was added thereto. After reacting for 30 minutes at room temperature, 5 μL of a solution comprising EDTA and biotinylated phosphatidylinositol (3,4,5)-triphosphate was added to quench the reaction.
5 μL of a detection reagent comprising a europium-labeled anti-GST antibody, the GST-tagged PH domain, and allophycocyanin-labeled streptavidin was added thereto. After 18 hours, HTRF (excitation wavelength: 330 nm, measuring wavelengths: 620 nm and 665 nm) was measured.
A value of dividing an amount of fluorescence obtained at the measuring wavelength 665 nm by an amount of fluorescence obtained at 620 nm was defined as an HTRF ratio. The HTRF ratio in the absence of a compound was defined as 100% activity, and the HTRF ratio in the absence of PI-3 kinase γ was defined as 0% activity to calculate an inhibition ratio.

PI-3 kinase γ, sequence (P48736 whole entry): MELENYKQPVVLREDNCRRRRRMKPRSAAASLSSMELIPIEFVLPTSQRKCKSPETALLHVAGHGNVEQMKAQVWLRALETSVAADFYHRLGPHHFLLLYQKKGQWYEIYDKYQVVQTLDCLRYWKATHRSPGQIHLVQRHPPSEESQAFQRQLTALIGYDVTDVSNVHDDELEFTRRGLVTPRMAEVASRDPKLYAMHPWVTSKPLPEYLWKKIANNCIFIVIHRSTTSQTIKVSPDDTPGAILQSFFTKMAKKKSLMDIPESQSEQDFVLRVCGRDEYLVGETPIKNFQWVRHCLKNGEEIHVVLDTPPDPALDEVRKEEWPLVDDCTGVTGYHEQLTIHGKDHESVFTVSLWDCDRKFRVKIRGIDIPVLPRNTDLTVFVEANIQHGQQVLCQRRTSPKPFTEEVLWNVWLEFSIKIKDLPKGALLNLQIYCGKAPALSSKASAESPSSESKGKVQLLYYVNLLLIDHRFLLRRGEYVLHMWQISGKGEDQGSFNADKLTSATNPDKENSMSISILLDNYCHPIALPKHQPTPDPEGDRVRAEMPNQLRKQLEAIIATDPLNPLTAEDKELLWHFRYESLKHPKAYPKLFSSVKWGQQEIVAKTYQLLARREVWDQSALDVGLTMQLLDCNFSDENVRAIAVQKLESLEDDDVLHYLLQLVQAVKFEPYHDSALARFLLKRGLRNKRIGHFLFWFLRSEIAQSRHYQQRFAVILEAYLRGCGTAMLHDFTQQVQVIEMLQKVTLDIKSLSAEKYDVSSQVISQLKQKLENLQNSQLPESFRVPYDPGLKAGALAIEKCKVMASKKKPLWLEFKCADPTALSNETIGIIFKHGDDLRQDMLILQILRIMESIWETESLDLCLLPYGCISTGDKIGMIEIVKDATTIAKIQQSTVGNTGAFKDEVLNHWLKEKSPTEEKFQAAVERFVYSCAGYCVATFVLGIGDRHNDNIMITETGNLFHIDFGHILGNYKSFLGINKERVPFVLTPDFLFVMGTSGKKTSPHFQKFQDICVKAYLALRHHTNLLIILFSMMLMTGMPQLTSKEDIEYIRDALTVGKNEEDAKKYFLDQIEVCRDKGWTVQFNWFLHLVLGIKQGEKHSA

Row | SMILES | inhibition at 50 µM
1 | CNC(=O)Nc1cn2nc(Cl)ccc2n1 [Compound I-1] | 72%
2 | CNC(=O)Nc1cn2nc(NC(=O)C3CCCC3)ccc2n1 [Compound I-4] | 57%
3 | CNC(=O)Nc1cn2nc(NC(=O)Nc3ccccc3)ccc2n1 [Compound I-5] | 60%
4 | CNC(=O)Nc1cn2nc(N3CCCC3=O)ccc2n1 [Compound I-6] | 67%
5 | CNC(=O)Nc1cn2nc(Nc3ccccc3)ccc2n1 [Compound I-7] | 77%
6 | CNC(=O)Nc1cn2nc(-c3ccccc3)ccc2n1 [Compound I-9] | 82%
7 | CCOC(=O)c1ccc2nc(NC(=O)NC)cn2n1 [Compound I-13] | 87%
8 | CNC(=O)Nc1cn2nc(C(=O)NCc3ccccc3)ccc2n1 [Compound I-15] | 74%
9 | CNC(=O)Nc1cn2nc(C(=O)c3cccc(OC)c3)ccc2n1 [Compound I-17] | 76%
10 | CNC(=O)Nc1cn2nc(Sc3ccccc3)ccc2n1 [Compound I-18] | 81%
11 | CNC(=O)Nc1cn2nc(Oc3ccccc3)ccc2n1 [Compound I-19] | 65%
12 | CNC(=O)Nc1cn2nc(Cc3ccccc3)ccc2n1 [Compound I-20] | 62%
13 | CNC(=O)Nc1cn2nc(COc3cccc(OC)c3)ccc2n1 [Compound I-22] | 56%
14 | COc1cccc(-c2ccc3nc(Nc4ccccc4)cn3n2)c1 [Compound I-27] | 69%
15 | CNC(=O)Nc1cn2nc(C(=O)N3CCC(C(=O)O)CC3)ccc2n1 [Compound I-32] | 70%
16 | CNC(=O)Nc1cn2nc(C(=O)Nc3cccc(C(=O)O)c3)ccc2n1 [Compound I-33] | 57%
17 | CNC(=O)Nc1cn2nc(-c3cccc(C(=O)OC)c3)ccc2n1 [Compound I-35] | 77%
18 | CNC(=O)Nc1cn2nc(-c3cccc(OC)c3)ccc2n1 [Compound I-36] | 90%
19 | CNC(=O)Nc1cn2nc(-c3ccsc3)ccc2n1 [Compound I-38] | 91%
20 | CNC(=O)Nc1cn2nc(Nc3cccc(OC)c3)ccc2n1 [Compound I-39] | 69%
21 | CNC(=O)Nc1cn2nc(C(=O)Nc3ccc(O)cc3)ccc2n1 [Compound I-41] | 83%

Row | SMILES | inhibition at 50 µM
22 | CNC(=O)Nc1cn2nc(C(=O)Nc3ccccc3)ccc2n1 [Compound I-43] | 79%
23 | CNC(=O)Nc1cn2nc(C(=O)NCc3ccc(OC)cc3)ccc2n1 [Compound I-44] | 57%
24 | CNC(=O)Nc1cn2nc(C(=O)Nc3ccc4[nH]ccc4c3)ccc2n1 [Compound I-45] | 74%
25 | CNC(=O)Nc1cn2nc(C(=O)Nc3ccc(Cl)cc3)ccc2n1 [Compound I-46] | 76%
26 | CCCNC(=O)c1ccc2nc(NC(=O)NC)cn2n1 [Compound I-48] | 83%
27 | CNC(=O)Nc1cn2nc(C(=O)NCCOC)ccc2n1 [Compound I-49] | 64%
28 | CNC(=O)Nc1cn2nc(C(=O)NC3CCCC3)ccc2n1 [Compound I-50] | 89%
29 | CNC(=O)Nc1cn2nc(C(=O)Nc3ccc(C(=O)O)cc3)ccc2n1 [Compound I-52] | 80%
30 | CNC(=O)Nc1cn2nc(Nc3cccc(OCc4ccccc4)c3)ccc2n1 [Compound I-53] | 74%
31 | CNC(=O)Nc1cn2nc(Nc3ccc(OC)cc3)ccc2n1 [Compound I-54] | 85%
32 | CNC(=O)Nc1cn2nc(-c3cccc(C(C)=O)c3)ccc2n1 [Compound I-55] | 85%
33 | CNC(=O)Nc1cn2nc(-c3ccc(C(C)=O)cc3)ccc2n1 [Compound I-56] | 77%
34 | CNC(=O)Nc1cn2nc(-c3cccc(N)c3)ccc2n1 [Compound I-57] | 84%
35 | CNC(=O)Nc1cn2nc(-c3cc4ccccc4s3)ccc2n1 [Compound I-58] | 70%
36 | CNC(=O)Nc1cn2nc(-c3cccc(Cl)c3)ccc2n1 [Compound I-59] | 52%
37 | CNC(=O)Nc1cn2nc(-c3ccc(Cl)cc3)ccc2n1 [Compound I-60] | 64%
38 | CNC(=O)Nc1cn2nc(-c3ccc(OC)cc3)ccc2n1 [Compound I-63] | 91%
39 | CNC(=O)Nc1cn2nc(-c3cccc(C)c3)ccc2n1 [Compound I-65] | 79%
40 | CNC(=O)Nc1cn2nc(-c3ccc(C)cc3)ccc2n1 [Compound I-66] | 77%
41 | CNC(=O)Nc1cn2nc(-c3ccc(Cl)c(Cl)c3)ccc2n1 [Compound I-67] | 72%
42 | CNC(=O)Nc1cn2nc(-c3ccc(-c4ccccc4)cc3)ccc2n1 [Compound I-68] | 90%

Row | SMILES | inhibition at 50 µM
43 | CNC(=O)Nc1cn2nc(-c3cccc(CO)c3)ccc2n1 [Compound I-69] | 89%
44 | CNC(=O)Nc1cn2nc(/C=C/c3ccccc3)ccc2n1 [Compound I-70] | 78%
45 | CNC(=O)Nc1cn2nc(-c3ccc(C#N)cc3)ccc2n1 [Compound I-71] | 69%
46 | CNC(=O)Nc1cn2nc(-c3ccc(S(C)(=O)=O)cc3)ccc2n1 [Compound I-72] | 66%
47 | CNC(=O)Nc1cn2nc(-c3ccc(NS(C)(=O)=O)cc3)ccc2n1 [Compound I-73] | 70%
48 | CNC(=O)Nc1cn2nc(-c3cccc(NS(C)(=O)=O)c3)ccc2n1 [Compound I-74] | 89%
49 | CNC(=O)Nc1cn2nc(-c3ccoc3)ccc2n1 [Compound I-76] | 72%
50 | CNC(=O)Nc1cn2nc(-c3ccc(C(N)=O)cc3)ccc2n1 [Compound I-77] | 64%
51 | CNC(=O)Nc1cn2nc(C3=CCCC3)ccc2n1 [Compound I-79] | 81%
52 | CNC(=O)Nc1cn2nc(-c3ccc(NC(=O)OC)cc3)ccc2n1 [Compound I-80] | 57%
53 | CNC(=O)Nc1cn2nc(-c3cccc(C(=O)N(C)C)c3)ccc2n1 [Compound I-82] | 79%
54 | CNC(=O)Nc1cn2nc(Nc3cccc(O)c3)ccc2n1 [Compound I-85] | 111%
55 | CNC(=O)Nc1cn2nc(C(=O)Nc3ccccc3OCCN)ccc2n1 [Compound I-98] | 72%
56 | CNC(=O)Nc1cn2nc(NC(C)=O)ccc2n1 [Compound I-101] | 59%
57 | CNC(=O)Nc1cn2nc(NC(=O)c3cccc(Cl)c3)ccc2n1 [Compound I-103] | 60%
58 | CNC(=O)Nc1cn2nc(NC(=O)c3ccccc3)ccc2n1 [Compound I-104] | 55%
59 | CNC(=O)Nc1cn2nc(Nc3cccc(C(=O)OC)c3)ccc2n1 [Compound I-105] | 73%
60 | COc1cccc(-c2ccc3nc(NC(=O)NCCc4ccccc4)cn3n2)c1 [Compound I-107] | 74%
61 | COc1cccc(-c2ccc3nc(NC(=O)Nc4cccs4)cn3n2)c1 [Compound I-108] | 89%
62 | COc1cccc(-c2ccc3nc(NC(=O)NC4CCCCC4)cn3n2)c1 [Compound I-109] | 99%
63 | CCCNC(=O)Nc1cn2nc(-c3cccc(OC)c3)ccc2n1 [Compound I-110] | 81%

Row | SMILES | inhibition at 50 µM
64 | COc1cccc(-c2ccc3nc(NC(=O)Nc4ccsc4)cn3n2)c1 [Compound I-111] | 55%
65 | CCOC(=O)CNC(=O)Nc1cn2nc(-c3cccc(OC)c3)ccc2n1 [Compound I-112] | 84%
66 | COc1cccc(-c2ccc3nc(NC(=O)NC(C)C)cn3n2)c1 [Compound I-113] | 86%
67 | COc1cccc(-c2ccc3nc(NC(=O)NC4CCCC4)cn3n2)c1 [Compound I-115] | 78%
68 | COc1cccc(-c2ccc3nc(NC(=O)NCCCl)cn3n2)c1 [Compound I-116] | 76%
69 | CCCCNC(=O)Nc1cn2nc(-c3cccc(OC)c3)ccc2n1 [Compound I-117] | 85%
70 | CNC(=O)Nc1cn2nc(C(=O)N[C@@H](C)C(N)=O)ccc2n1 [Compound I-121] | 71%
71 | CNC(=O)Nc1cn2nc(N3CCOC3=O)ccc2n1 [Compound I-122] | 61%
72 | CNC(=O)Nc1cn2nc(-c3cccc(NC(C)=O)c3)ccc2n1 [Compound I-124] | 105%
73 | CNC(=O)Nc1cn2nc(-c3cccc(C(C)C)c3)ccc2n1 [Compound I-127] | 79%
74 | CNC(=O)Nc1cn2nc(-c3cccc([N+](=O)[O-])c3)ccc2n1 [Compound I-128] | 50%
75 | CNC(=O)Nc1cn2nc(-c3cccc(COC(C)(C)C)c3)ccc2n1 [Compound I-131] | 70%
76 | CNC(=O)Nc1cn2nc(-c3cccc(COC)c3)ccc2n1 [Compound I-132] | 78%
77 | CNC(=O)Nc1cn2nc(-c3ccc(-c4ccccc4)s3)ccc2n1 [Compound I-133] | 65%
78 | CNC(=O)Nc1cn2nc(-c3cccc(C#N)c3)ccc2n1 [Compound I-134] | 59%
79 | CNC(=O)Nc1cn2nc(-c3cccc(SC)c3)ccc2n1 [Compound I-135] | 80%
80 | CNC(=O)Nc1cn2nc(-c3cccc(C(=O)N4CCOCC4)c3)ccc2n1 [Compound I-138] | 75%
81 | CNC(=O)Nc1cn2nc(-c3cccc(C(=O)NC(C)C)c3)ccc2n1 [Compound I-139] | 79%
82 | CNC(=O)Nc1cn2nc(-c3cccc(C(=O)NCC(C)C)c3)ccc2n1 [Compound I-140] | 60%
